Tested on: fish
Test: Fish acute toxicity test of surfactants
Format: in vivo
Conditions: fish in aqueous solution of surfactant diluted 6000 times, 25° C.
Protocol: (§1) Test method. The experimental environment is at a constant temperature of 25° C., the surfactants is diluted 200 and 6000 times with triple distilled water. The surface tension is tested by JY-200C full-automatic interfacial tensiometer, referring to (GB5545 Surfactant Determination of surface tension by pulling up liquid film). The fish acute toxicity test is carried out tin the aqueous solution diluted 6000 times with surfactant, referencing to (GB/T 21281-2007 fish acute toxicity test classification test method of hazardous chemicals).

Question: Which survival time does the source give for “Fatty alcohol polyoxyethylene ether [AEO-9]” here?
Answer: Its survival time is 18 min.

Question: For Sodium Cocoyl Isethionate-85 [SCI-85], which survival time is on record?
Answer: The survival time was 24 min.

Question: For Sodium secondary alkyl sulfonate [SAS], which survival time is on record?
Answer: The survival time was 41 min.

Question: For cocamidopropyl betaine [CAB], which survival time is on record?
Answer: Its survival time is 27 min.

Question: Which survival time does the source give for Alkyl glycoside (import) [APGj] here?
Answer: Its survival time is 25 min.

Question: For “Lauramide propyl amine oxide [Shampoo 4501]”, which survival time is on record?
Answer: Its survival time is 15 min.

Question: For “Sodium dodecyl ether phosphate [Shampoo 1211]”, which survival time is on record?
Answer: The survival time was 284 min.

Question: With “Coconut oil fatty acid diethanolamide [Shampoo 6501]” as the compound, how does the survival time read?
Answer: The survival time was 44 min.

Question: With Methyl glucose dioleate [DOE-120] as the compound, how does the survival time read?
Answer: Its survival time is greater than 1440 min.

Question: With Imidazoline (import) [ZMLj] as the compound, how does the survival time read?
Answer: The survival time was 64 min.

Question: For “Fatty alcohol polyoxyethylene ether [AEO-7]”, which survival time is on record?
Answer: Its survival time is 21 min.

Question: For Alkyl glycoside (C12-C14) [APG2], which survival time is on record?
Answer: Its survival time is 25 min.

Question: For Alkyl glycoside (C8-C10) [APG1], which survival time is on record?
Answer: The survival time was 33 min.

Question: Which survival time does the source give for `CCCCCCCCCCCC(=O)N(C)CC(=O)[O-].[Na+]` [Shampoo 4202, Sodium lauroyl sarcosinate (30%)] here?
Answer: Its survival time is greater than 1440 min.

Question: With Imidazoline [MZL] as the compound, how does the survival time read?
Answer: The survival time was 134 min.

Question: With Sulfobetaine [ASB] as the compound, how does the survival time read?
Answer: Its survival time is 42 min.

Question: For “Fatty alcohol polyoxyethylene ether [AEO-3]”, which survival time is on record?
Answer: The survival time was 27 min.

Same assay, conditions: fish in surfactant solution at 1:6000

Question: With Methyl glucose dioleate [DOE-120] as the compound, how does the fish survival read?
Answer: Its fish survival is 24 h.

Question: For `CCCCCCCCCCCC(=O)N(C)CC(=O)[O-].[Na+]` [Shampoo 4202, Sodium lauroyl sarcosinate (30%)], which fish survival is on record?
Answer: Its fish survival is 24 h.

Tested on: not listed separately
Test: Surface tension of surfactants diluted 200 and 6000 times
Format: physicochemical
Conditions: surfactant diluted 200 times with triple distilled water, 25° C.
Protocol: We classify surfactants into three types: anionic surfactants, zwitterionic surfactants, and nonionic surfactants. Experimental studies on the surface tension and acute toxicity of fish were conducted on the above-mentioned main surfactants and other kinds of surfactants used in shampoo, bath and other care products.
as §1

Question: For “Fatty alcohol polyoxyethylene ether [AEO-9]”, which “Surface tension 1:200” value is on record?
Answer: The value was 30.2 mN/m.

Question: Which “Surface tension 1:200” value does the source give for Sodium Cocoyl Isethionate-85 [SCI-85] here?
Answer: The value was 30.6 mN/m.

Question: For Sodium secondary alkyl sulfonate [SAS], which “Surface tension 1:200” value is on record?
Answer: Its value is 31.3 mN/m.

Question: With cocamidopropyl betaine [CAB] as the compound, how does the “Surface tension 1:200” value read?
Answer: Its value is 31.3 mN/m.

Question: With sodium laureth ether sulfate [AES] as the compound, how does the “Surface tension 1:200” value read?
Answer: The value was 36.4 mN/m.

Question: With Alkyl glycoside (import) [APGj] as the compound, how does the “Surface tension 1:200” value read?
Answer: Its value is 28.1 mN/m.

Question: For “Lauramide propyl amine oxide [Shampoo 4501]”, which “Surface tension 1:200” value is on record?
Answer: Its value is 30.5 mN/m.

Question: For “Sodium dodecyl ether phosphate [Shampoo 1211]”, which “Surface tension 1:200” value is on record?
Answer: Its value is 35.2 mN/m.

Question: Which “Surface tension 1:200” value does the source give for “Coconut oil fatty acid diethanolamide [Shampoo 6501]” here?
Answer: Its value is 26.0 mN/m.

Question: With Methyl glucose dioleate [DOE-120] as the compound, how does the “Surface tension 1:200” value read?
Answer: The value was 42.6 mN/m.

Question: With Imidazoline (import) [ZMLj] as the compound, how does the “Surface tension 1:200” value read?
Answer: The value was 28.5 mN/m.

Question: For “Fatty alcohol polyoxyethylene ether [AEO-7]”, which “Surface tension 1:200” value is on record?
Answer: The value was 27.6 mN/m.

Question: With Alkyl glycoside (C12-C14) [APG2] as the compound, how does the “Surface tension 1:200” value read?
Answer: Its value is 28.2 mN/m.

Question: For `CCCCCCCCCCCCOS(=O)(=O)O.N` [Shampoo K12-A, ammonium lauryl sulfate], which “Surface tension 1:200” value is on record?
Answer: Its value is 26.7 mN/m.

Question: With Alkyl glycoside (C8-C10) [APG1] as the compound, how does the “Surface tension 1:200” value read?
Answer: Its value is 28.3 mN/m.

Question: For `CCCCCCCCCCCC(=O)N(C)CC(=O)[O-].[Na+]` [Shampoo 4202, Sodium lauroyl sarcosinate (30%)], which “Surface tension 1:200” value is on record?
Answer: Its value is 27.9 mN/m.

Question: With Imidazoline [MZL] as the compound, how does the “Surface tension 1:200” value read?
Answer: Its value is 29.1 mN/m.

Question: For `CCCCCCCCCCCCOS(=O)(=O)[O-].[Na+]` [Shampoo K12, Sodium lauryl sulfate], which “Surface tension 1:200” value is on record?
Answer: Its value is 35.0 mN/m.

Question: Which “Surface tension 1:200” value does the source give for Sodium α-alkenyl sulfonate [AOS] here?
Answer: Its value is 31.8 mN/m.

Question: For ammonium laureth ether sulfate [AES-A], which “Surface tension 1:200” value is on record?
Answer: The value was 34.9 mN/m.

Question: Which “Surface tension 1:200” value does the source give for Sulfobetaine [ASB] here?
Answer: The value was 35.3 mN/m.

Question: For “Fatty alcohol polyoxyethylene ether [AEO-3]”, which “Surface tension 1:200” value is on record?
Answer: Its value is 27.2 mN/m.

Same assay, conditions: surfactant diluted 6000 times with triple distilled water, 25° C.

Question: For “Fatty alcohol polyoxyethylene ether [AEO-9]”, which “Surface tension 1:6000” value is on record?
Answer: Its value is 30.4 mN/m.

Question: With Sodium Cocoyl Isethionate-85 [SCI-85] as the compound, how does the “Surface tension 1:6000” value read?
Answer: The value was 42.8 mN/m.

Question: With Sodium secondary alkyl sulfonate [SAS] as the compound, how does the “Surface tension 1:6000” value read?
Answer: The value was 41.5 mN/m.

Question: Which “Surface tension 1:6000” value does the source give for cocamidopropyl betaine [CAB] here?
Answer: The value was 32.4 mN/m.

Question: For sodium laureth ether sulfate [AES], which “Surface tension 1:6000” value is on record?
Answer: The value was 36.2 mN/m.

Question: For Alkyl glycoside (import) [APGj], which “Surface tension 1:6000” value is on record?
Answer: Its value is 28.6 mN/m.

Question: For “Lauramide propyl amine oxide [Shampoo 4501]”, which “Surface tension 1:6000” value is on record?
Answer: The value was 31.2 mN/m.

Question: For “Sodium dodecyl ether phosphate [Shampoo 1211]”, which “Surface tension 1:6000” value is on record?
Answer: Its value is 40.5 mN/m.

Question: With “Coconut oil fatty acid diethanolamide [Shampoo 6501]” as the compound, how does the “Surface tension 1:6000” value read?
Answer: Its value is 27.6 mN/m.

Question: For Methyl glucose dioleate [DOE-120], which “Surface tension 1:6000” value is on record?
Answer: Its value is 49.4 mN/m.

Question: For Imidazoline (import) [ZMLj], which “Surface tension 1:6000” value is on record?
Answer: The value was 31.3 mN/m.

Question: With “Fatty alcohol polyoxyethylene ether [AEO-7]” as the compound, how does the “Surface tension 1:6000” value read?
Answer: The value was 29.3 mN/m.

Question: For Alkyl glycoside (C12-C14) [APG2], which “Surface tension 1:6000” value is on record?
Answer: The value was 28.5 mN/m.

Question: Which “Surface tension 1:6000” value does the source give for `CCCCCCCCCCCCOS(=O)(=O)O.N` [Shampoo K12-A, ammonium lauryl sulfate] here?
Answer: Its value is 38.9 mN/m.

Question: Which “Surface tension 1:6000” value does the source give for Alkyl glycoside (C8-C10) [APG1] here?
Answer: Its value is 47.3 mN/m.

Question: With `CCCCCCCCCCCC(=O)N(C)CC(=O)[O-].[Na+]` [Shampoo 4202, Sodium lauroyl sarcosinate (30%)] as the compound, how does the “Surface tension 1:6000” value read?
Answer: Its value is 64.8 mN/m.

Question: For Imidazoline [MZL], which “Surface tension 1:6000” value is on record?
Answer: Its value is 45.5 mN/m.

Question: For `CCCCCCCCCCCCOS(=O)(=O)[O-].[Na+]` [Shampoo K12, Sodium lauryl sulfate], which “Surface tension 1:6000” value is on record?
Answer: Its value is 40.8 mN/m.

Question: Which “Surface tension 1:6000” value does the source give for Sodium α-alkenyl sulfonate [AOS] here?
Answer: Its value is 41.8 mN/m.

Question: Which “Surface tension 1:6000” value does the source give for ammonium laureth ether sulfate [AES-A] here?
Answer: The value was 32.9 mN/m.

Question: With Sulfobetaine [ASB] as the compound, how does the “Surface tension 1:6000” value read?
Answer: The value was 47.5 mN/m.

Question: With “Fatty alcohol polyoxyethylene ether [AEO-3]” as the compound, how does the “Surface tension 1:6000” value read?
Answer: The value was 27.3 mN/m.

Source: US20230293412A1, “SHAMPOOS AND METHODS OF PREPARING AND USING THE SAME” (SHANDONG BENZHEN COSMETICS CO., LTD, priority 2020, published 2023)
